Tests used:
MCF‐7 cells [1] = assay: ApoStat staining (caspase activation), MCF‐7; type: cell-based, human; settings: MCF‐7, 20 μM, 72 h
Description: (§1) Flow cytometry. For gaining better insights into the mechanisms of action of the ruthenium complexes, MCF‐7 and LN229 cells incubated with an IC50 dose of 3 or 4, were analyzed via flow cytometry. Several staining protocols were carried out in parallel, in independent experiments: i) AnnV/PI for the detection of apoptotic cell death, ii) AO for the detection of acidic vacuoles, iii) ApoStat for checking caspase activation, iv) CFSE for detecting interference with cellular proliferation, and v) DAPI for the detection of morphological signs of apoptosis. Untreated cells or cells treated only with BSA (control) were also measured, as reference for BSA‐free and BSA‐containing drug formulations, respectively. […] Channels FL1 (green emission), FL2 (orange emission) and/or FL3 (dark red emission) were used for fluorescence detection, according to the specific staining agent. Sideward Scatter (SSC) for MCF‐7 cells treated with 4 or BSA−4 was also analyzed, with respect to the control, for detection of shifts of cell granularity. […]
Staining Protocols for Flow Cytometric Analysis. […] Finally, cells were washed in PBS, resuspended in PBS (or AnnV‐binding buffer for AnnV/PI), and analysed. […] Cells were then washed, trypsinised, dissolved in PBS and analysed by CyFlow® Space Partec using the PartecFloMax® software (Partec GmbH, Münster, Germany). […]

MCF‐7 cells [2] = assay: DAPI staining, fluorescence microscopy, MCF‐7; type: cell-based, human; settings: MCF‐7, 20 μM, 72 h
Description: as §1
FCS, 2 mM L‐glutamine, 0.01% sodium pyruvate and antibiotics, at 37 °C in a humidified atmosphere with 5% CO2. […] Cells were counted and seeded in 96‐well plates and incubated overnight, as described above. […]
Staining Protocols for Flow Cytometric Analysis. […] Finally, cells were washed in PBS, resuspended in PBS (or AnnV‐binding buffer for AnnV/PI), and analysed. […]

| Substance | caspase activation (ApoStat) (MCF‐7 cells [1]) | morphological signs of apoptosis (DAPI) (MCF‐7 cells [2]) |
| --- | --- | --- |
| closo ‐[3‐(η^6‐p‐Cymene)‐1‐(quinolin‐8‐yl‐acetate)‐3,1,2‐RuC2B9H10] [Compound 4] | caspase‐independent apoptosis | sparse morphological signs of apoptosis |
| closo‐ [Compound 3, closo‐ [3‐(η^6‐p‐Cymene)‐1‐(CH2COOH)‐3,1,2‐RuC2B9H10]] | induce caspase activation | sparse morphological signs of apoptosis |

Source: PMC6973020, “Quinoline‐Conjugated Ruthenacarboranes: Toward Hybrid Drugs with a Dual Mode of Action” (Chemmedchem, 2019)
